This assay deals with healthy ICR mice. Nature of the assay: glucose tolerance test in fasted ICR mice (in vivo hypoglycemic model), serum glucose by glucose oxidase method. The conditions noted are these: ICR mice fasted 16 h, dosage 10 mg/kg in 1% sodium carboxymethylcellulose, 2 g/kg glucose i.p. 2 h after test compound (Dapagliflozin: 1.5 h); for blood glucose at 0.5 h: serum 0.5 h after glucose; for blood glucose at 1 h: serum 1 h after glucose; for blood glucose at 2 h: serum 2 h after glucose; for blood glucose at 3 h: serum 3 h after glucose; for blood glucose at 4 h: serum 4 h after glucose. The protocol:
A suspension of the test compounds with […] was prepared by dissolving the sample in 1% sodium carboxymethylcellulose solution. The administration dosage is 0.2 ml/20 g body weight, which equals to a dosage of 10 mg/kg.
Female and male of healthy ICR mice are half to half, and the weight is 20-24 g, in accordance with standard level one. Animals were fasted for 16 hours. 2 g/kg glucose in saline was intraperitoneally injected 2 hours after the test compounds (for Dapagliflozin, glucose was injected 1.5 hours after medicine), and blood samples were collected from mice tall vein using capillary at fixed times of 0.5 h, 1 h, 2 h, 3 h and 4 h after challenging with glucose. The sera were separated using centrifugation. The glucose oxidase method was used to measure glucose content of serum at different time points.

As to `CCOc1ccc(C(C)(F)c2cc([C@@H]3O[C@H](CO)[C@@H](O)[C@H](O)[C@H]3O)ccc2Cl)cc1` (stereo partly drawn) [Example 52, 1-{4-chloro-3-[1-(4-ethyoxyphenyl)-1-fluoroethyl]phenyl}-1-deoxy-β-D-glucopyranose], the “blood glucose at 0.5 h” value was 209.3 ± 30.4 mg/dL, the “blood glucose at 1 h” value was determined as 175.1 ± 20.5 mg/dL, the “blood glucose at 2 h” value worked out at 158.6 ± 31.1 mg/dL and the “blood glucose at 3 h” value came to 101.2 ± 12.4 mg/dL. For the same compound, the “blood glucose at 4 h” value is 80.0 ± 13.2 mg/dL.

As for `CCOc1ccc(C(OC)c2cc([C@@H]3O[C@H](CO)[C@@H](O)[C@H](O)[C@H]3O)ccc2Cl)cc1` (stereo partly drawn) [Example 53, 1-{4-chloro-3-[1-(4-ethyoxyphenyl)(methoxyl)methyl]phenyl}-1-deoxy-β-D-glucopyranose], the “blood glucose at 0.5 h” value is 199.0 ± 21.3 mg/dL, the “blood glucose at 1 h” value amounted to 171.4 ± 36.1 mg/dL, the “blood glucose at 2 h” value came out at 110.2 ± 20.8 mg/dL and the “blood glucose at 3 h” value is 93.0 ± 17.7 mg/dL. Moreover, the “blood glucose at 4 h” value turned out to be 69.6 ± 17.3 mg/dL.

Regarding `CCOc1ccc(Cc2cc([C@@H]3O[C@H](CO)[C@@H](O)[C@H](O)[C@H]3O)ccc2Cl)cc1` [Dapagliflozin, reference compound], the “blood glucose at 0.5 h” value came out at 277.1 ± 42.4 mg/dL, the “blood glucose at 1 h” value came out at 172.1 ± 34.1 mg/dL, the “blood glucose at 2 h” value stood at 92.1 ± 21.1 mg/dL and the “blood glucose at 3 h” value is 81.3 ± 20.1 mg/dL. The “blood glucose at 4 h” value amounted to 60.0 ± 11.0 mg/dL.

Turning to `CCOc1ccc(C(C)c2cc([C@@H]3O[C@H](CO)[C@@H](O)[C@H](O)[C@H]3O)ccc2Cl)cc1` (stereo partly drawn) [Example 36, 1-{4-chloro-3-[1-(4-ethyoxyphenyl)ethyl]phenyl}-1-deoxy-β-D-glucopyranose], the “blood glucose at 0.5 h” value was determined as 189.1 ± 21.2 mg/dL, the “blood glucose at 1 h” value was 120.1 ± 10.2 mg/dL, the “blood glucose at 2 h” value stood at 113.0 ± 11.0 mg/dL and the “blood glucose at 3 h” value was 74.6 ± 21.0 mg/dL. Besides, the “blood glucose at 4 h” value amounted to 69.1 ± 13.2 mg/dL.

With `CCOc1ccc(C(C)(OC)c2cc([C@@H]3O[C@H](CO)[C@@H](O)[C@H](O)[C@H]3O)ccc2Cl)cc1` (stereo partly drawn) [Example 51, 1-{4-chloro-3-[1-(4-ethyoxyphenyl)-1-methoxyethyl]phenyl}-1-deoxy-β-D-glucopyranose], the “blood glucose at 0.5 h” value worked out at 250.5 ± 33.1 mg/dL, the “blood glucose at 1 h” value was 158.2 ± 20.6 mg/dL, the “blood glucose at 2 h” value is 123.2 ± 33.1 mg/dL and the “blood glucose at 3 h” value was found to be 101.2 ± 11.7 mg/dL. Also, the “blood glucose at 4 h” value came out at 75.5 ± 21.4 mg/dL.

On to `CCOc1ccc(C(F)c2cc([C@@H]3O[C@H](CO)[C@@H](O)[C@H](O)[C@H]3O)ccc2Cl)cc1` (stereo partly drawn) [Example 1, 1-{4-chloro-3-[(4-ethyoxyphenyl)fluoromethyl]phenyl}-1-deoxy-β-D-glucopyranose], for which the “blood glucose at 0.5 h” value worked out at 194.1 ± 41.3 mg/dL, the “blood glucose at 1 h” value amounted to 161.1 ± 35.4 mg/dL, the “blood glucose at 2 h” value was 97.3 ± 31.2 mg/dL and the “blood glucose at 3 h” value amounted to 69.1 ± 22.1 mg/dL. Besides, the “blood glucose at 4 h” value was 67.2 ± 17.1 mg/dL.

Take `CCOc1ccc(C(C)(C)c2cc([C@@H]3O[C@H](CO)[C@@H](O)[C@H](O)[C@H]3O)ccc2Cl)cc1` [Example 16, 1-{4-chloro-3-[(dimethyl)(4-ethyoxyphenyl)methyl]phenyl}-1-deoxy-β-D-glucopyranose]: the “blood glucose at 0.5 h” value turned out to be 157.1 ± 21.3 mg/dL, the “blood glucose at 1 h” value was 137.0 ± 27.7 mg/dL, the “blood glucose at 2 h” value stood at 102.4 ± 17.5 mg/dL and the “blood glucose at 3 h” value was determined as 88.1 ± 32.2 mg/dL. In addition, the “blood glucose at 4 h” value was 70.3 ± 14.2 mg/dL.

Values taken from patent US9062087B2, “Phenyl C-glucoside derivatives, preparation methods and uses thereof” (Tianjin Institute of Pharmaceutical Research, priority 2010, dated 2015).
